Values after ≈ are worked out from the molar mass of the structure shown. Values joined by “and” are separate entries in the source; they are usually repeats but may differ in a detail not shown here. Equal entries are not always repeated. “Also recorded” adds a separate entry of the source. Where two headings read alike, the source gives them in different places.

We go through 1 molecule from US20080188540A1, “PHARMACEUTICAL COMPOSITIONS CONTAINING SUBSTITUTED INDOLE ACID DERIVATIVES AS INHIBITORS OF PLASMINOGEN ACTIVATOR INHIBITOR-1 (PAI-1)” (Wyeth, priority 2007, published 2008).

Data set [1] is described as follows: Solubility profile (free acid in HCl/NaOH solution, centrifugation, supernatant assayed by HPLC). It counts as physicochemical. The text has this:
In some embodiments, the [1-(4-tert-Butylbenzyl)-5-(3-methylphenyl)-1H-indol-3-yl](oxo)acetic acid used with the composition of the invention is micronized.

Data set [2] is described as follows: Bioavailability of three formulations, single oral gavage dose, plasma pharmacokinetics. The note with it: Formula C, fasted male dogs, individual dogs and Mean; for Plasma concentration: oral 300 mg/kg. It is filed as in vivo. As to the method:
Three formulations were evaluated for the bioavilability of [1-(4-tert-butylbenzyl)-5-(3-methylphenyl)-1h-indol-3-yl](oxo)acetic acid in male dogs. Following a single oral (gavage, 300 mg/kg) dose of [1-(4-tert-butylbenzyl)-5-(3-methylphenyl)-1h-indol-3-yl](oxo)acetic acid, blood samples were drawn at 0 (predose), 0.25, 0.5, 1, 2, 3, 4, 6, 8, 10, 12, 24 and 30 hours. The pharmacokinetic parameters, AUC, Cmax, tmax and t1/2, were determined for each dog, and descriptive statistics were calculated for comparison among formulations.
Individual plasma concentrations over time after dosing Formula C are tabulated and plotted in Table 2 and FIG. 2 respectively.

By solubility is commonly meant the dissolved amount per volume that the medium holds. As for `Cc1cccc(-c2ccc3c(c2)c(C(=O)C(=O)O)cn3Cc2ccc(C(C)(C)C)cc2)c1` [[1-(4-tert-Butylbenzyl)-5-(3-methylphenyl)-1H-indol-3-yl](oxo)acetic acid], the solubility enhancement in data set [1] (2% Tween80/0.5% methylcellulose solution versus water) came to 26.000 fold. In addition, the solubility was 580 µg/mL (≈ 1360 µM) in data set [1] (2% Tween80/0.5% methylcellulose solution, pH 3.5, aqueous with cosolvent or surfactant or cyclodextrin, read-out: solubility) and around 0.25 µg/mL (≈ 0.588 µM) in data set [1] (aqueous HCl/NaOH solution, aqueous buffer, thermodynamic from solid, in the ionized form (so in the source), read-out: aqueous solubility). The pH-solubility profile result in data set [1] (free acid in HCl/NaOH solution, 24 hours equilibration (2 hours for pH<4)) is given as “Above pH 4, solubility increases with increasing pH up to pH˜8; also recorded: Above pH 8, solubility decreases due to precipitation of the sodium salt”. In addition, the aqueous solubility result in data set [1] (upon ionization in aqueous media) was “approximately 24 uG/mL”. In data set [1] (water, thermodynamic from solid, neutral pH 6.9), this molecule returned a solubility at 24 h of 24 µg/mL (≈ 56.4 µM). Further, the Plasma concentration was 2200 ng/mL and 3390 ng/mL and 3290 ng/mL in data set [2] (0.25 hours after dose); 7500 ng/mL and 10400 ng/mL and 9190 ng/mL in data set [2] (0.5 hours after dose); 18100 ng/mL and 21100 ng/mL and 20000 ng/mL in data set [2] (1 hour after dose); 26300 ng/mL and 34700 ng/mL and 34100 ng/mL in data set [2] (2 hours after dose); 29300 ng/mL and 31900 ng/mL and 46600 ng/mL in data set [2] (4 hours after dose); 26900 ng/mL and 30300 ng/mL and 48000 ng/mL in data set [2] (6 hours after dose). Besides, the Plasma concentration in data set [2] (8 hours after dose) was 26500 ng/mL and 24000 ng/mL and 37600 ng/mL; in data set [2] (10 hours after dose) it was 25300 ng/mL and 40100 ng/mL and 15900 ng/mL and 28200 ng/mL; in data set [2] (12 hours after dose) it was 19700 ng/mL and 43600 ng/mL and 12400 ng/mL and 22300 ng/mL; in data set [2] (24 hours after dose) it was 4720 ng/mL and 25900 ng/mL and 2410 ng/mL and 21900 ng/mL; in data set [2] (30 hours after dose), 2610 ng/mL and 15200 ng/mL and 1240 ng/mL and 10600 ng/mL. Also, in data set [2] (male, dog, in vivo, po, 300 mg/kg, 0.25 hours after dose), the concentration at 0.25 h turned out to be 2330 ng/mL. In addition, the concentration at 0.5 h in data set [2] (male, dog, in vivo, po, 300 mg/kg, 0.5 hours after dose) stood at 8190 ng/mL. This molecule showed a concentration at 1 h in data set [2] (male, dog, in vivo, po, 300 mg/kg, 1 hour after dose) of 16700 ng/mL. Also, in data set [2] (male, dog, in vivo, po, 300 mg/kg, 2 hours after dose), the concentration at 2 h is 30000 ng/mL. In data set [2] (male, dog, in vivo, po, 300 mg/kg, 4 hours after dose), this molecule came in with a concentration at 4 h of 43000 ng/mL. Moreover, the concentration at 6 h in data set [2] (male, dog, in vivo, po, 300 mg/kg, 6 hours after dose) is 39400 ng/mL. In addition, the concentration at 8 h in data set [2] (male, dog, in vivo, po, 300 mg/kg, 8 hours after dose) was 31900 ng/mL.
